Laboratory results from patent US10228358B2, “Apparatus and method for the assessment of concentration profiling and permeability rates” (Pion Inc., priority 2015, dated 2019).
≈ marks a conversion by molar mass, not a printed value.

Tests used:
[1] = Permeability in concentric nested donor/receiver arrangement with PAMPA membrane; type: in vitro ADME; details: in situ UV fiber optic, read-out: Peff (effective permeability coefficient)
Procedure: A concentric nested arrangement was used to study permeability of several compounds. The membrane was a PAMPA membrane and experiments were performed with and without Acceptor Sink Buffer™ on the acceptor sink side. Concentrations measurements were taken using in situ UV fiber optic system Pion Spectra™.

[2] = In vitro dissolution-permeation of aripiprazole forms on μFLUX; type: in vitro ADME
Procedure: In the case of buccal drug delivery, the donor chamber represented the oral cavity, the artificial membrane the oral mucosa, while the acceptor chamber represented the blood circulation. At first […] of n-dodecane was dribbled on the membrane surface, then 20 mL of pH 6.8 phosphate buffer was added into the donor chamber, and 20 mL of sink buffer was added into the acceptor chamber. […] Samples equivalent to 20 mg of ARP were placed in the donor chamber. Both chambers were stirred at 200 rpm at room temperature, using stirring devices 87 and 89. The temperature was controlled via elements 91. In both chambers the API concentration was followed by UV-spectrophotometry at 252 nm. Suitable probes for the spectroscopic measurements (not shown in FIG. 12) were introduced through openings 93 and 95.
The flux across the membrane was calculated using the following equation:
[formula] where the flux (J) of a drug through the membrane is defined as the amount (n) of drug crossing a unit area (A) perpendicular to its flow per unit time (t).
The API concentration profiles in the donor and acceptor vessels (1000 mg/L max concentration, 0.025 mol/dm^3 KH2PO4 buffer in the donor compartment, n-dodecane membrane, sink buffer as acceptor, 150 rpm, 25° C.) are presented, respectively, in FIGS. 13A and 13B.

[3] = physchem; details: aqueous buffer
Procedure: In the case of buccal drug delivery, the donor chamber represented the oral cavity, the artificial membrane the oral mucosa, while the acceptor chamber represented the blood circulation. At first 75 mL of n-dodecane was dribbled on the membrane surface, then 20 mL of pH 6.8 phosphate buffer was added into the donor chamber, and 20 mL of sink buffer was added into the acceptor chamber. […] Both chambers were stirred at 200 rpm at room temperature, using stirring devices 87 and 89. The temperature was controlled via elements 91. In both chambers the API concentration was followed by UV-spectrophotometry at 252 nm. Suitable probes for the spectroscopic measurements (not shown in FIG. 12) were introduced through openings 93 and 95.
The in vitro dissolution-absorption studies were carried out using a μFLUX™ (Pion Inc., Billerica Mass., U.S.A.), a schematic diagram of which is shown in FIG. 12. The apparatus included a donor and an acceptor chamber (20 mL volume) separated by an artificial membrane (PVDF, polyvinylidenefluoride, 0.45 μm, 1.54 cm^2). In the case of oral drug delivery, the donor chamber represents the gastrointestinal tract, while the acceptor chamber represents the blood circulation. […]

Row | API dissolved during the biorelevant time ([2]; 30-60 min, donor chamber) [%] | flux during the first 25 min ([2]; n-dodecane membrane, sink buffer acceptor) [μg/h×cm^2] | solubility [3] [µg/mL] | SMILES | Papp [1] [×10⁻⁶ cm/s]
1 |  |  |  | Cn1c(=O)c2c(ncn2C)n(C)c1=O [Caffeine] | 257
2 | 1.5 | 16 | 30 (≈ 66.9 µM) | O=C1CCc2ccc(OCCCCN3CCN(c4cccc(Cl)c4Cl)CC3)cc2N1 [ARP, aripiprazole] | 
3 |  |  |  | CC(=O)Oc1ccccc1C(=O)O [Aspirin] | 331
